Numbered stars: 1 amine (or outer) side, 2 acyl side, 3 side chain; on linkers, the order of the positions; unused ones are H or OH. Bridge positions count the residues as written; N and C are the ends. Square brackets hold non-standard residues; d marks the D form. Peptide text beside a SMILES is read from it. * marks the point of attachment. ξ: configuration not given here. X11 = O=C(O)CN1CCN(CC(=O)O)CCN(C(CCC(=O)NCCSCc2cc(C[*:1])cc(C[*:2])c2)C(=O)O)CC1; Pro(4,4-F2) = O=C(O)[C@@H]1CC(F)(F)CN1; mXylylene = c1cc(C[*:1])cc(C[*:2])c1; Tic = O=C(O)[C@@H]1Cc2ccccc2CN1; 2Thi = N[C@@H](Cc1cccs1)C(=O)O; Hexanoyl = CCCCCC(=O)*; ξC = NC(CS)C(=O)O; Sar = CNCC(=O)O
What was measured:
Human recombinant FAP = Human recombinant FAP (Homo sapiens, UniProt Q12884); test: FRET-based FAP protease activity assay; type: biochemical; set-up: purchased R&D systems 3715-SE
[1] = biological target: T1, FAP-expressing human WI-38 fibroblasts (Homo sapiens, UniProt Q12884); test: Competitive FACS binding assay
T1 construct: FAP-expressing human WI-38 fibroblasts (ECACC) were cultured in EMEM; host or cells: WI-38 human fibroblasts
Experimental: Cells were analyzed in an Attune NxT flow cytometer. […] […].
Cells were analyzed in an Attune NxT flow cytometer. […]

[2] = pIC50 Category (Activity), FRET-peptide substrate, 37° C.
[3] = pIC50 Category (Activity), FRET-based FAP protease activity assay, recombinant human FAP, 37° C.

Chain of Human recombinant FAP (Q12884 whole entry): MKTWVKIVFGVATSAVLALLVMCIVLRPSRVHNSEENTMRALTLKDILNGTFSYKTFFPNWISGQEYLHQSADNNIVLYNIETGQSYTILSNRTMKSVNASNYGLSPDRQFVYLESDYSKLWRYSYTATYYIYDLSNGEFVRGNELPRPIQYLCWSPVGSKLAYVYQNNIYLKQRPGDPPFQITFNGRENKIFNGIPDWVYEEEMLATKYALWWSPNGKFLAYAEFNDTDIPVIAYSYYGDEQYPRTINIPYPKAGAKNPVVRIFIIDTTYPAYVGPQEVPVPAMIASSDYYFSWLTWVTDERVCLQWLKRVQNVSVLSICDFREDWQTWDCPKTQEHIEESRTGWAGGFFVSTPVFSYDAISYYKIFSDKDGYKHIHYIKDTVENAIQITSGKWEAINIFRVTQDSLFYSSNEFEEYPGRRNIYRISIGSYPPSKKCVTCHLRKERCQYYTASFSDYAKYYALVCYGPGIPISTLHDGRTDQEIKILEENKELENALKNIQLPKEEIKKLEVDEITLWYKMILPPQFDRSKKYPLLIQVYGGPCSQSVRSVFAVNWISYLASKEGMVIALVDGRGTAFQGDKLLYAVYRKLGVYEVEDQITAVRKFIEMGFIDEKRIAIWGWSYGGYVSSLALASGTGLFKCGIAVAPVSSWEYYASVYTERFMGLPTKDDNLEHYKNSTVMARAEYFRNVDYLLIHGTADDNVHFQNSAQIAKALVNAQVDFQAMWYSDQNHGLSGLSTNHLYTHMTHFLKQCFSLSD
T1 sequence (Q12884 whole entry): as above

Row | SMILES | IC50 [1] | IC50 (Human recombinant FAP; [3]) | IC50 (Human recombinant FAP; [2]) | IC50 (Human recombinant FAP; pIC50 Category (activity), Recombinant human FAP)
1 | CCCCCC(=O)N[C@H]1CSCc2cccc(c2)CSC[C@@H](C(N)=O)NC(=O)[C@@H]2Cc3ccccc3CN2C(=O)[C@H](CCC(=O)O)NC(=O)[C@H]([C@@H](C)O)NC(=O)[C@@H]2CCCN2C(=O)[C@@H]2CCCN2C1=O [3BP-3359, Hex-[Cys(3MeBn)-Pro-Pro-Thr-Glu-Tic-Cys]-NH2] (Hexanoyl-CPPTE[Tic]C-NH2; linker 1-7 via mXylylene) | > 1 µM | 0.1 to 0.794 µM | – | –
2 | CCCCCC(=O)N[C@H]1CSCc2cc(CSCCNC(=O)CCC(C(=O)O)N3CCN(CC(=O)O)CCN(CC(=O)O)CC3)cc(c2)CSCC(C(=O)O)NC(=O)[C@H](Cc2ccccc2)NC(=O)[C@H](CCC(=O)O)NC(=O)[C@H]([C@@H](C)O)NC(=O)[C@@H]2CCCN2C(=O)[C@@H]2CCCN2C1=O (stereo partly drawn) [3BP-4695, Hex-[Cys(tMeBn(NODAGA-AET))-Pro-Pro-Thr-Glu-Phe-Cys]-OH] (Hexanoyl-CPPTEF[ξC]-OH; linker 1-7 via X11) | 0.01 to 0.0794 µM | – | – | 0.01 to 0.0794 µM
3 | CCCCCC(=O)N[C@H]1CSCc2cc(CSCCNC(=O)CCOCCOCCOCCOCCOCCOCCNC(=O)CCc3ccc(O)c(CN(CCN(CC(=O)O)Cc4cc(CCC(=O)O)ccc4O)CC(=O)O)c3)cc(c2)CSC[C@@H](C(=O)O)NC(=O)[C@H](Cc2ccccc2)NC(=O)[C@H](CCC(N)=O)NC(=O)[C@H]([C@@H](C)O)NC(=O)[C@@H]2CCCN2C(=O)[C@@H]2CCCN2C1=O [3BP-4383, Hex-[Cys(tMeBn(HBED-PEG6-AET))-Pro-Pro-Thr-Gln-Phe-Cys]-OH] | 0.01 to 0.0794 µM | – | 0.01 to 0.0794 µM | –
4 | CCCCCC(=O)N[C@H]1CSCc2cccc(c2)CSC[C@@H](C(N)=O)NC(=O)[C@H](Cc2ccccc2)NC(=O)[C@H](CCC(=O)O)NC(=O)[C@H]([C@@H](C)O)NC(=O)[C@@H]2CC(F)(F)CN2C(=O)[C@@H]2CCCN2C1=O [3BP-3365, Hex-[Cys(3MeBn)-Pro-4Dfp-Thr-Glu-Phe-Cys]-NH2] (Hexanoyl-CP[Pro(4,4-F2)]TEFC-NH2; linker 1-7 via mXylylene) | > 1 µM | 0.1 to 0.794 µM | – | –
5 | C[C@@H](O)[C@@H]1NC(=O)[C@@H]2CCCN2C(=O)[C@@H]2CCCN2C(=O)[C@@H](NC(=O)CCCCN)CSCc2cccc(c2)CSC[C@@H](C(N)=O)NC(=O)[C@H](Cc2ccccc2)NC(=O)[C@H](CCC(N)=O)NC1=O [3BP-3760, H-Ava-[Cys(3MeBn)-Pro-Pro-Thr-Gln-Phe-Cys]-NH2] | > 1 µM | > 1 µM | – | –
6 | CC(=O)N[C@@H](CCCC(=O)O)C(=O)N[C@H]1CSCc2cccc(c2)CSC[C@@H](C(N)=O)NC(=O)[C@H](Cc2ccccc2)NC(=O)[C@H](CCC(N)=O)NC(=O)[C@H]([C@@H](C)O)NC(=O)[C@@H]2CCCN2C(=O)[C@@H]2CCCN2C1=O [3BP-3764, Ac-Aad-[Cys(3MeBn)-Pro-Pro-Thr-Gln-Phe-Cys]-NH2] | > 1 µM | > 1 µM | – | –

More lines, main results first:

Row | IC50 [1] | IC50 (Human recombinant FAP; [3]) | SMILES | IC50 (Human recombinant FAP; [2]) | IC50 (Human recombinant FAP; pIC50 Category (activity), Recombinant human FAP)
7 | 0.1 to 0.794 µM | – | CCCC[C@H](NC(=O)CCC(=O)NCCCOCCOCCOCCCNC(=O)[C@H](CCC(=O)NC[C@H](O)[C@@H](O)[C@H](O)[C@H](O)CO)NC(=O)[C@H](CCC(=O)NC[C@H](O)[C@@H](O)[C@H](O)[C@H](O)CO)NC(=O)C(CNCCN)CNCCN)C(=O)N[C@H]1CSCc2cccc(c2)CSC[C@@H](C(=O)O)NC(=O)[C@H](Cc2ccccc2)NC(=O)[C@H](CCC(N)=O)NC(=O)[C@H]([C@@H](C)O)NC(=O)[C@@H]2CCCN2C(=O)[C@@H]2CCCN2C1=O [3BP-4265, N4Ac-Glu(AGLU′)-Glu(AGLU′)-Ttds-Nle-[Cys-(3MeBn)-Pro-Pro-Thr-Gln-Phe-Cys]-OH] | 0.01 to 0.0794 µM | –
8 | < 0.01 µM | < 0.01 µM | CSCC[C@H](NC(C)=O)C(=O)N[C@H]1CSCc2cccc(c2)CSC[C@@H](C(=O)N[C@@H](CC(=O)O)C(=O)N[C@@H](Cc2c[nH]cn2)C(=O)N[C@@H](Cc2ccccc2)C(=O)N[C@@H](CCCNC(=N)N)C(=O)N[C@@H](CC(=O)O)C(N)=O)NC(=O)[C@H](Cc2cccs2)NC(=O)[C@H](CCC(=O)O)NC(=O)[C@H]([C@@H](C)O)NC(=O)[C@@H]2CCCN2C(=O)[C@@H]2CCCN2C1=O [3BP-3193, Ac-Met-[Cys(3MeBn)-Pro-Pro-Thr-Glu-Thi-Cys]-Asp-His-Phe-Arg-Asp-NH2] (Ac-MCPPTE[2Thi]CDHFRD-NH2; linker 2-8 via mXylylene) | – | –
9 | 0.1 to 0.794 µM | 0.01 to 0.0794 µM | CCCCCC(=O)N[C@H]1CSCc2cccc(c2)CSC[C@@H](C(N)=O)NC(=O)[C@H](Cc2ccccc2)NC(=O)[C@H](CCC(=O)O)NC(=O)[C@H]([C@@H](C)O)NC(=O)[C@@H]2CCCN2C(=O)CN(C)C1=O [3BP-3347, Hex-[Cys(3MeBn)-Nmg-Pro-Thr-Glu-Phe-Cys]-NH2] (Hexanoyl-C[Sar]PTEFC-NH2; linker 1-7 via mXylylene) | – | –
